Measurements reported in patent US8258119B2, “Anti-cancer drugs and uses relating thereto for metastatic malignant melanoma and other cancers” (Kasina Laila Innova Pharmaceuticals, priority 2008, dated 2012).
Blank lines part the entries; values can stand above or below the molecule they belong to.

Experiments:
[1] = cited from earlier work
[2] = test system: normal human skin epithelial HS.531.sk cells; experiment: LDH leakage assay on normal skin cells (tumor selectivity); type: cell-based
Procedure: From the data obtained from the MTT assay (Table J), compound 1, compound 6 and compound 13 have been selected and their cytotoxicity potential has been further validated in LDH leakage assay. […] Cytotoxicity potential of DTIC and its derivative compounds were evaluated by measuring the leaked lactate dehydrogenase (LDH) into the culture supernatant (LDH Cytotoxicity Detection Roche Applied Sciences, Germany). The leaked LDH is directly proportional to the cell damage done by the cytotoxic compounds. In brief, cells were treated with test compounds at various concentrations and incubated for 48 h. Vehicle control culture wells received only a maximum of 0.5% DMSO. The cell free culture supernatants were mixed with catalyst and dye solution and allowed to incubate for 15 min at room temperature. Finally, the reaction was stopped and the optical density was measured at 492 nm in a microplate reader (BioRad, USA). The results (mean OD±SD) obtained from quadruplicate wells were used in calculation to determine the cytotoxicity potential (50% of inhibitory concentration, IC50) of the test compounds. A plot of loss of cell viability as indicated by the leakage of LDH versus drug concentration is depicted in FIG. 1.
Next, to check whether the DTIC derivative compounds can selectively kill the melanoma cells without or minimally affecting the normal cells, we assessed the effect of the test compounds on normal human skin epithelial HS.531.sk cells. […] Whereas, 120 μg/ml of DTIC, compound 1, […] caused 5.8%, 4.2%, 2.4%, and 2.4% reduction in normal cell viability, respectively.

[3] = at therapeutic concentrations; cited from earlier work
[4] = test system: Vascular Endothelial Growth Factor (VEGF); experiment: VEGF expression in B16F0 cells by western blot; type: cell-based, mouse; details: 50 μg/ml, 24 h
Procedure: B16F0 cells were cultivated in Dulbecco's modified Eagle's red medium (DMEM) (Sigma Life Science, USA) containing 10% fetal bovine serum (FBS) and 4.5 g/l D-glucose. Equal number cells (5×10^4) were seeded in culture dishes (35×10 mm, 11.7 cm^2). The cells were treated with either 50 μg/ml of DTIC or […] for 24 h. The cells incubated with only 0.1% DMSO was considered as vehicle control. After 24 h, the cell lysates were prepared and analyzed for Vascular Endothelial Growth Factor (VEGF) expression by western blot assay as described earlier with appropriate modifications (43).
For Western blot analyses, equal amount of B16F0 cell lysate proteins were separated in 12.5% SDS-PAGE under reducing conditions, and transferred onto nitrocellulose membranes (Bio-Rad, USA). The membranes were blocked with SuperBlock (Thermo scientific, USA) and subsequently reacted with VEGF antibody (Abeam, UK) at 4° C. overnight. Bound antibodies were probed with horseradish peroxidase conjugated secondary antibody and the specific immunoreactions were developed with enhanced chemiluminescence (Thermo scientific, USA). […] The images of immunoreactive bands were captured in Kodak Image Station 4000MM (Carestream Health Inc., New Haven, Conn.) and analyzed densitometrically by Kodak molecular Imaging software, Version 4.5.

[5] = test system: B16 F0 mouse melanoma cells; experiment: Cell cycle analysis by flow cytometry; type: cell-based; details: 24 h, propidium iodide FACS
Procedure: B16 F0 Cells were treated with the indicated concentrations of either vehicle (0.1% DMSO) or DTIC or Compound 6 for 24 h at different concentrations as indicated. The propidium iodide stained cells were analyzed for the distribution of cell cycle by FACS calibur, and the percentage of distribution at different phases of cell cycle was determined using ModFIT software. Data are shown as one representative of at least three independent experiments.
Cell cycle analysis of Compound 6 and DTIC treated B16F0 cells were analyzed by flow cytometry as described earlier with some modifications (42). Briefly, B16F0 cells were cultivated in DMEM containing 10% fetal bovine serum (FBS) in presence of 4.5 g/l D-glucose. The sub confluent cells were treated with either DTIC or Compound 6 and incubated for 24 h. Cells were harvested and prepared single cell suspension in buffer (PBS+2% FBS). The cells were washed twice with cold PBS and then fixed with cold 70% ethanol for 30 min. Ethanol was removed by centrifugation and the cells were suspended and the cell count was adjusted to 10^6 cells per ml. The cells were washed two times with PBS and then the cells were stained with propidium iodide for 30 min at 37° C. in presence of RNase. Finally, the cells were analyzed on FACS Calibur flow cytometry (BD Biosciences, USA). […]

[6] = test system: Human umbilical vein endothelial cells (HUVEC); experiment: Endothelial cell migration assay; type: cell-based; details: 18 h
Procedure: The methodology of endothelial cell migration assay was essentially the same as described earlier with some modifications (43). FALCON™ Cell Culture inserts (Becton Dickinson, USA) with 8 μm-pores in their PET membrane was coated with 0.1 mg/ml of collagen. Human umbilical vein endothelial cells (HUVEC) were added to the cell culture inserts (Becton Dickinson) at a density of 5×10^4 cells/insert. Cells were allowed to migrate through the insert for 18 h in presence of different concentrations of either DTIC or Compound 6. The control culture containing migration assembly received only 0.1% DMSO. […] The membranes of the inserts were then mounted on glass slides. Cells migrated through the membrane pores were counted in 20 random fields under Nikon Eclipse TS 100 microscope at 20× objective.

B16F0 cells = experiment: B16F0 mouse melanoma cell invasion assay (Matrigel); type: cell-based; details: 100 μg/ml, 24 h, compared to vehicle or DTIC
Procedure: The inhibitory effects of DTIC and […] on In vitro invasive ability of B16F0 were tested in cell invasion assay performed with by using Matrigel (BME Cultrex®, R&D Systems, USA) coated cell culture inserts (Becton Dickinson, USA) with 8 μm-pore membrane. Equal number (fifty thousands) of B16F0 cells were applied in each insert well and allowed to attach for 2 h at 37° C. and in presence of 5% CO2. Thereafter, the cellular invasion through the matrigel layer was performed in presence or absence of test compounds. Either 100 μg/ml of DTIC or Compound 6 was applied in the lower chamber of the invasion assembly. 0.1% DMSO was applied in the vehicle control culture chambers. After 24 h treatment, the matrigel layer containing cells was removed with cotton plug and the invaded cells on the other side of the membrane were fixed with methanol for 5 min and then stained with Giemsa. The stained membrane was mounted on a glass slide and number invaded cells were counted in 20 random fields (20× objective) under a light microscope (Nikon Eclipse TS 100).

[7] = patient with renal and hepatic dysfunctions

SMILES: CN(C)/N=N/c1[nH]cnc1C(N)=O [DTIC, 5-(3,3-dimethyl-1-trizeno)-imidazole-4-carboxamide, reference compound]
average cumulative excretion of unchanged DTIC in the urine ([1]; in six hours): 40 % of the injected dose
initial half life [1, 7]: 55 min
terminal half life [1, 7]: 432 min
initial half life of disappearance from the plasma ([1]; plasma, biphasic): 19 min
terminal half life of disappearance from the plasma ([1]; plasma, biphasic): five
reduction in normal cell viability ([2]; 120 μg/ml): 5.8%
effect on normal skin cell growth ([2]; up to 100 μg/ml): do not affect the normal cell skin cell growth
binding to human plasma protein [3]: not appreciably bound

melting point: 108 to 110 °C
SMILES: CN(C)/N=N/c1ccsc1C(=O)O [Compound 6, 3-[(dimethylamino)diazenyl]thiophene-2-carboxylic acid]
VEGF protein expression [4]: down regulation of VEGF protein
effect on cell cycle distribution [5]: induction of cell cycle arrest in G2/M phase
endothelial cell migration [6]: significant inhibition of migration
tumor cell invasion (B16F0 cells): significantly reduced malignant tumor cell invasion
